Assay results taken from patent US9096494B2, “Arachidonic acid analogs and methods for analgesic treatment using same” (priority 2009, dated 2015).

Assays:
[1] = Intravenous analgesia: onset and duration of effect
mice [2] = assay: Tail-flick assay in mouse; format: in vivo
Description: The tail-flick assay is based on the time measured to reflex withdrawal of the tail in response to a radiant heat source. The maximum exposure time to the radiant heat source is set at 10 seconds. Prior to treatment, a baseline (BL) time measured to tail-flick withdrawal is determined after two exposures to the radiant source separated by a 30 min period. Control mice are intravenously treated with vehicle and test mice are intravenously treated with analgesic test compound. Data of tail-flick withdrawal of treated mice (TM) are calculated as maximum possible effect (MPE), where MPE=(TM−BL)/(10−BL). Tail-flick withdrawal is measured at 5 min, 15 min, 30 mm, and 1 hr. A total of 3-5 mice are used for each time point tested.

mice [3] = assay: Writhing assay in mouse (bolus and continuous infusion); format: in vivo

## CN1CC[C@]23c4c5ccc(O)c4O[C@H]2[C@@H](O)C=C[C@H]3[C@H]1C5 [Morphine, morphine, reference compound]
[1]; animal tests
  time to peak effect: 15 to 40 min
[1]; from the start of injection
  onset of analgesia after intravenous bolus injection or infusion: 20 min
[1]; intravenous bolus
  duration of analgesic effect from bolus injection: 35 to 40 min
Mice [2]; 10 mg/kg intravenous bolus
  time to maximal (full) analgesic response, tail-flick: 15 min
Mice [2]; intravenous
  dose needed in tail-flick assay relative to writhing assay for a moderate level of efficacy: roughly 100 ×
Mice [3]; mouse, in vivo
  continuous infusion dose producing roughly the same level of analgesia (roughly 50% MPE), writhing assay: 1 mg/kg/h
  time over which analgesic levels are sustained by continuous infusion: 24 h
Mice [3]; mouse, in vivo, iv
  dose achieving 100% MPE, writhing assay: approximately 0.5 mg/kg

## CC(=O)Nc1ccc(O)cc1 [acetaminophen, reference compound]
Mice [3]; mouse writhing assay
  dose dependence of the level of analgesia: not dose dependent
